Laboratory results: patent publication US11472803B2, “7-substituted 1-aryl-naphthyridine-3-carboxylic acid amides and use thereof” (Bayer Aktiengesellschaft, priority 2016, dated 2022)

Key:
[1] = biological target: T1, human M2 receptor (Homo sapiens, UniProt P08172); experiment: Functional M2-GIRK1/4 activation test: allosteric potency (EC50) and efficiency at EC20 acetylcholine; format: cell-based; conditions: CHO-DUKX-M2-GIRK cells; for EC50: voltage-sensitive dye, acetylcholine at EC20, in some cases mean of two or more determinations; for Emax / Efficiency: boosting of the acetylcholine effect at EC20 acetylcholine concentration
T1 construct: expressed in transfected cells; host or cells: CHO-DUKX (CHO-DUKX-M2-GIRK)
T1 sequence (P08172 1-466): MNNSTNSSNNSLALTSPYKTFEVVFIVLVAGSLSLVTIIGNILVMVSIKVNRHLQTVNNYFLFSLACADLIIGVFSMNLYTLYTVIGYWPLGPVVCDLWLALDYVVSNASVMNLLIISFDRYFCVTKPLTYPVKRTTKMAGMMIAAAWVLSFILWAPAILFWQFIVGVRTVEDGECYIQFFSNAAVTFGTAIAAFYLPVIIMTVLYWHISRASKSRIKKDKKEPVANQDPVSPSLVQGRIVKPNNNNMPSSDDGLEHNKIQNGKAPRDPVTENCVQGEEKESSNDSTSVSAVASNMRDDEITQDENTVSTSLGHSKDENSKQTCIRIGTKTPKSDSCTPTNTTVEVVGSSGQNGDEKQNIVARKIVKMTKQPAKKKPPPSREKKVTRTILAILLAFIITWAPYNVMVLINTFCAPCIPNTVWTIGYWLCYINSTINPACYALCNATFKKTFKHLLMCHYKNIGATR
Method in brief: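 Positive allosteric modulation measured as boosting of an EC20 acetylcholine response: hyperpolarization via GIRK1/4 in CHO-DUKX-M2-GIRK cells, monitored by membrane-potential dye fluorescence over 60 s after agonist, compound preadded. Hill-function fit gives EC50 and efficiency.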

[2] = biological target: T1, human M2 receptor; experiment: Functional M2-GIRK1/4 activation test: positive cooperativity (α factor), shift of acetylcholine dose-response curve; format: cell-based; conditions: Allosteric EC50 shift of acetylcholine 8-point dose-response curve; CHO-DUKX-M2-GIRK cells; α>1 = positive cooperativity
Method in brief: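 CHO-DUKX cells stably expressing human M2 and GIRK1/4, loaded with voltage-sensitive dye at room temperature; hyperpolarization followed by fluorescence. Each test-substance concentration, added first, combined with an 8-point acetylcholine dose-response; shift of the acetylcholine curve analysed by allosteric EC50 shift model to give cooperativity factor α.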

SMILES | EC50 [1] | Emax [1] | Cooperativity (alpha factor) [2] | Efficiency [1]
C[C@@H](NC(=O)c1cn(-c2c(F)cc(F)cc2Cl)c2nc(N3C[C@@H](O)[C@H](O)C3)c(F)cc2c1=O)C(F)(F)F (single isomer, unassigned) [Example 228] | 6.4 nM | – | 33 | 93%
O=C(N[C@@H](C1CC1)C(F)(F)F)c1cn(-c2c(F)cc(F)cc2F)c2nc(N3CC[C@H](O)C3)c(F)cc2c1=O [Example 108, N-[(1S)-1-Cyclopropyl-2,2,2-trifluoroethyl]-6-fluoro-7-[(3S)-3-hydroxypyrrolidin-1-yl]-4-oxo-1-(2,4,6-trifluorophenyl)-1,4-dihydro-1,8-naphthyridine-3-carboxamide] | 5.4 nM | 96% | 47 | –
CC(C)[C@H](C)NC(=O)c1cn(-c2c(F)cc(F)cc2F)c2nc(N3C[C@@H](O)[C@H](O)C3)c(F)cc2c1=O [Example 16, 7-[(3R,4R)-3,4-dihydroxypyrrolidin-1-yl]-6-fluoro-N-[(2S)-3-methylbutan-2-yl]-4-oxo-1-(2,4,6-trifluorophenyl)-1,4-dihydro-1,8-naphthyridine-3-carboxamide] | 8.45 nM | 99% | 42 | –
CC(NC(=O)c1cn(-c2ncc(F)cc2F)c2nc(N3CC(O)C(O)C3)c(F)cc2c1=O)C(F)(F)C(F)(F)F (single isomer, unassigned) [Example 45] | 8.47 nM | 100% | 62 | –
CC(C)[C@@H](C)NC(=O)c1cn(-c2c(F)cc(F)cc2F)c2nc(N3C[C@@H](O)[C@H](O)C3)c(F)cc2c1=O [Example 15, 7-[(3R,4R)-3,4-dihydroxypyrrolidin-1-yl]-6-fluoro-N-[(2R)-3-methylbutan-2-yl]-4-oxo-1-(2,4,6-trifluorophenyl)-1,4-dihydro-1,8-naphthyridine-3-carboxamide] | 9.15 nM | 96% | 41 | –
O=C(NC12CC(C1)C2)c1cn(-c2c(F)cc(F)cc2F)c2nc(N3C[C@@H](O)[C@H](O)C3)c(F)cc2c1=O [Example 12, N-(bicyclo[1.1.1]pent-1-yl)-7-[(3R,4R)-3,4-dihydroxypyrrolidin-1-yl]-6-fluoro-4-oxo-1-(2,4,6-trifluorophenyl)-1,4-dihydro-1,8-naphthyridine-3-carboxamide] | 20 nM | 90% | 40 | –
CCC(C)(C)NC(=O)c1cn(-c2c(F)cc(F)cc2F)c2nc(N3C[C@@H](O)[C@H](O)C3)c(F)cc2c1=O [Example 89, 7-[(3R,4R)-3,4-dihydroxypyrrolidin-1-yl]-6-fluoro-N-(2-methylbutan-2-yl)-4-oxo-1-(2,4,6-tri-fluorophenyl)-1,4-dihydro-1,8-naphthyridine-3-carboxamide] | 4.75 nM | 100% | 44 | –
CC(C)(CC(F)(F)F)NC(=O)c1cn(-c2c(F)cc(F)cc2F)c2nc(N3C[C@@H](O)[C@H](O)C3)c(F)cc2c1=O [Example 13, 7-[(3R,4R)-3,4-dihydroxypyrrolidin-1-yl]-6-fluoro-4-oxo-N-(4,4,4-trifluoro-2-methylbutan-2-yl)-1-(2,4,6-trifluorophenyl)-1,4-dihydro-1,8-naphthyridine-3-carboxamide] | 6.2 nM | 94% | 49 | –
CC(C)(CC(F)(F)F)NC(=O)c1cn(-c2c(F)cccc2F)c2nc(N3C[C@@H](O)[C@H](O)C3)c(F)cc2c1=O [Example 1, 1-(2,6-Difluorophenyl)-7-[(3R,4R)-3,4-dihydroxypyrrolidin-1-yl]-6-fluoro-4-oxo-N-(4,4,4-tri-fluoro-2-methylbutan-2-yl)-1,4-dihydro-1,8-naphthyridine-3-carboxamide] | 21 nM | 92% | 35 | –
O=C(NC(C1CC1)(C1CC1)C(F)(F)C(F)(F)F)c1cn(-c2c(F)cc(F)cc2F)c2nc(N3C[C@@H](O)[C@H](O)C3)c(F)cc2c1=O [Example 208, N-(1,1-dicyclopropyl-2,2,3,3,3-pentafluoropropyl)-7-[(3R,4R)-3,4-dihydroxypyrrolidin-1-yl]-6-fluoro-4-oxo-1-(2,4,6-trifluorophenyl)-1,4-dihydro-1,8-naphthyridine-3-carboxamide] | 1.8 nM | 100% | 27 | –

Continued, values first:

EC50 [1] | Emax [1] | Cooperativity (alpha factor) [2] | Efficiency [1] | SMILES
6.65 nM | 98% | 53 | – | CC[C@H](NC(=O)c1cn(-c2c(F)cc(F)cc2F)c2nc(N3CC[C@H](O)C3)c(F)cc2c1=O)C(F)(F)F [Example 115, 6-Fluoro-7-[(3S)-3-hydroxypyrrolidin-1-yl]-4-oxo-N-[(2S)-1,1,1-trifluorobutan-2-yl]-1-(2,4,6-trifluorophenyl)-1,4-dihydro-1,8-naphthyridine-3-carboxamide]
8.1 nM | – | 38 | 100% | CC(NC(=O)c1cn(-c2c(F)cc(F)cc2F)c2nc(N3CC(CO)(CO)C3)c(F)cc2c1=O)C(F)(F)C(F)(F)F (racemic) [Example 170, 7-[3,3-Bis(hydroxymethyl)azetidin-1-yl]-6-fluoro-4-oxo-N-[3,3,4,4,4-pentafluorobutan-2-yl]-1-(2,4,6-trifluorophenyl)-1,4-dihydro-1,8-naphthyridine-3-carboxamide]
1.6 nM | 100% | 39 | – | O=C(NC(C1CC1)C(F)(F)C(F)(F)F)c1cn(-c2c(F)cc(F)cc2F)c2nc(N3C[C@@H](O)[C@H](O)C3)c(F)cc2c1=O (single isomer, unassigned) [Example 201]
– | 91% | 39 | – | CC(NC(=O)c1cn(-c2c(F)cc(F)cc2F)c2nc(N3C[C@@H](O)[C@H](O)C3)c(F)cc2c1=O)C(F)(F)C(F)(F)F (single isomer, unassigned) [Example 9]
3.3 nM | – | 35 | 94% | CCC(NC(=O)c1cn(-c2c(F)cc(F)cc2F)c2nc(N3CC(CO)(CO)C3)c(F)cc2c1=O)C(F)(F)C(F)(F)F (racemic) [Example 172, 7-[3,3-Bis(hydroxymethyl)azetidin-1-yl]-6-fluoro-4-oxo-N-[1,1,1,2,2-pentafluoropentan-3-yl]-1-(2,4,6-trifluorophenyl)-1,4-dihydro-1,8-naphthyridine-3-carboxamide]
2.1 nM | 100% | 26 | – | O=C(NC(C1CC1)(C1CC1)C(F)(F)F)c1cn(-c2c(F)cc(F)cc2F)c2nc(N3CC(CO)(CO)C3)c(F)cc2c1=O [Example 210, 7-[3,3-bis(hydroxymethyl)azetidin-1-yl]-N-(1,1-dicyclopropyl-2,2,2-trifluoroethyl)-6-fluoro-4-oxo-1-(2,4,6-trifluorophenyl)-1,4-dihydro-1,8-naphthyridine-3-carboxamide]
25 nM | 100% | 30 | – | O=C(N[C@@H](C1CC1)C(F)(F)F)c1cn(-c2c(F)cc(F)cc2F)c2nc(N3CC(O)C3)c(F)cc2c1=O [Example 54, N-[(1S)-1-Cyclopropyl-2,2,2-trifluoroethyl]-6-fluoro-7-(3-hydroxyazetidin-1-yl)-4-oxo-1-(2,4,6-trifluorophenyl)-1,4-dihydro-1,8-naphthyridine-3-carboxamide]
5.64 nM | 93% | 57 | – | O=C(N[C@@H](C1CC1)C(F)(F)F)c1cn(-c2c(F)cc(F)cc2F)c2nc(N3C[C@@H](O)[C@H](O)C3)c(F)cc2c1=O [Example 7, N-[(1S)-1-Cyclopropyl-2,2,2-trifluoroethyl]-7-[(3R,4R)-3,4-dihydroxypyrrolidin-1-yl]-6-fluoro-4-oxo-1-(2,4,6-trifluorophenyl)-1,4-dihydro-1,8-naphthyridine-3-carboxamide]
9.7 nM | 97% | 36 | – | O=C(NC(C(F)(F)F)C(F)(F)F)c1cn(-c2c(F)cc(F)cc2F)c2nc(N3CC(CO)(CO)C3)c(F)cc2c1=O [Example 230, 7-[3,3-bis(hydroxymethyl)azetidin-1-yl]-6-fluoro-N-(1,1,1,3,3,3-hexafluoropropan-2-yl)-4-oxo-1-(2,4,6-trifluorophenyl)-1,4-dihydro-1,8-naphthyridine-3-carboxamide]
4.25 nM | 100% | 33 | – | CC(NC(=O)c1cn(-c2c(F)cc(F)cc2F)c2nc(N3CC[C@H](O)C3)c(F)cc2c1=O)C(F)(F)C(F)(F)F (mixture of isomers) [Example 112, 6-Fluoro-7-[(3S)-3-hydroxypyrrolidin-1-yl]-4-oxo-N-[3,3,4,4,4-pentafluorobutan-2-yl]-1-(2,4,6-trifluorophenyl)-1,4-dihydro-1,8-naphthyridine-3-carboxamide]
